Measurements reported in PMC13210772, “Dual FLT3/MAPK14 Proteolysis-Targeting Chimera (PROTAC) Induces Potent Acute Myeloid Leukemia Cell Death” (Pharmaceuticals, 2026).
Values after ≈ are worked out from the molar mass of the structure shown.

How the values were obtained:
Nephelometric solubility = format: physicochemical; settings: aqueous buffer, kinetic from dmso stock; PBS buffer, nephelometry
Method: In addition to the degradation and determination of the effects on AML cancer cells, we also determined some physicochemical parameters to assess whether the compounds are suitable for further in vivo studies. Nephelometric measurements were performed to determine the water solubility of some compounds. […] The nephelometric technique has been previously described as a high-throughput method for the solubility determination of compounds in the solvent of interest. This technique measures the intensity of scattered light when visible light passes through a suspension of the tested compound. Relative turbidity is an indication of the insolubility of compounds.
First, equidistant and logarithmic pre-dilutions were prepared in a 96-well plate with round bottoms, using 25 mM stock solutions of compounds MA68 and MA191 in DMSO. Then, 5 μL of each pre-dilution was added to 245 μL of PBS buffer in a 96-well plate with straight bottoms. Quadruplets were prepared for the blank (DMSO + PBS), and final concentrations (one plate per compound) were tested. The final concentrations measured started from 500 μM to 0.78125 μM. A NEPHELOstarplus (BMG LABTECH GmbH, Ortenberg, Germany) was used to measure the solubility, and omega-data analysis software (version 3.42 R5) was used to analyze the results.

ABL1 = biological target: T1, ABL1 (Homo sapiens, UniProt P00519); experiment: NanoBRET CELLinib128; format: binding; settings: 100% no effect, 0% complete tracer displacement, read-out: Tracer bound
T1 construct: Full-length kinase ORF (Promega, Madison, WI, USA) cloned in frame with a NanoLuc-vector was transfected into HEK293T cells; host or cells: HEK293T

CAMK1D = biological target: T2, CAMK1D (Homo sapiens, UniProt Q8IU85); experiment: NanoBRET CELLinib128; format: binding; settings: 100% no effect, 0% complete tracer displacement, read-out: Tracer bound
T2 construct: Full-length kinase ORF (Promega, Madison, WI, USA) cloned in frame with a NanoLuc-vector was transfected into HEK293T cells; host or cells: HEK293T

CAMK1G = biological target: T3, CAMK1G (Homo sapiens, UniProt Q96NX5); experiment: NanoBRET CELLinib128; format: binding; settings: 100% no effect, 0% complete tracer displacement, read-out: Tracer bound
T3 construct: Full-length kinase ORF (Promega, Madison, WI, USA) cloned in frame with a NanoLuc-vector was transfected into HEK293T cells; host or cells: HEK293T
T3 sequence (Q96NX5 whole entry): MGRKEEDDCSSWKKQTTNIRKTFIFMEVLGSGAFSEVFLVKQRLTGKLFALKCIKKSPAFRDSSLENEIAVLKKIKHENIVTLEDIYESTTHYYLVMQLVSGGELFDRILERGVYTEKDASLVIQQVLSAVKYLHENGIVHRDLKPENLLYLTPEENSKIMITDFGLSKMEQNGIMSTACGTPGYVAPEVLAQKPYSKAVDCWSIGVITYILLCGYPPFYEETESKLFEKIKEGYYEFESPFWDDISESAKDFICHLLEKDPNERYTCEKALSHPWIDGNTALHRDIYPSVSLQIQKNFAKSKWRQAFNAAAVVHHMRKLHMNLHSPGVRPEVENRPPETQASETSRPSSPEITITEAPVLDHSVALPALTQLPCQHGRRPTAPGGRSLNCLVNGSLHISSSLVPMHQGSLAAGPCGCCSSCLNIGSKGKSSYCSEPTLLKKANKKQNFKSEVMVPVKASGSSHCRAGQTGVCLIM

EPHA5 = biological target: T4, EPHA5 (Homo sapiens, UniProt P54756); experiment: NanoBRET CELLinib128; format: binding; settings: 1 µM; 100% no effect, 0% complete tracer displacement
T4 construct: Full-length kinase ORF (Promega, Madison, WI, USA) cloned in frame with a NanoLuc-vector was transfected into HEK293T cells; host or cells: HEK293T
T4 sequence (P54756 25-1037): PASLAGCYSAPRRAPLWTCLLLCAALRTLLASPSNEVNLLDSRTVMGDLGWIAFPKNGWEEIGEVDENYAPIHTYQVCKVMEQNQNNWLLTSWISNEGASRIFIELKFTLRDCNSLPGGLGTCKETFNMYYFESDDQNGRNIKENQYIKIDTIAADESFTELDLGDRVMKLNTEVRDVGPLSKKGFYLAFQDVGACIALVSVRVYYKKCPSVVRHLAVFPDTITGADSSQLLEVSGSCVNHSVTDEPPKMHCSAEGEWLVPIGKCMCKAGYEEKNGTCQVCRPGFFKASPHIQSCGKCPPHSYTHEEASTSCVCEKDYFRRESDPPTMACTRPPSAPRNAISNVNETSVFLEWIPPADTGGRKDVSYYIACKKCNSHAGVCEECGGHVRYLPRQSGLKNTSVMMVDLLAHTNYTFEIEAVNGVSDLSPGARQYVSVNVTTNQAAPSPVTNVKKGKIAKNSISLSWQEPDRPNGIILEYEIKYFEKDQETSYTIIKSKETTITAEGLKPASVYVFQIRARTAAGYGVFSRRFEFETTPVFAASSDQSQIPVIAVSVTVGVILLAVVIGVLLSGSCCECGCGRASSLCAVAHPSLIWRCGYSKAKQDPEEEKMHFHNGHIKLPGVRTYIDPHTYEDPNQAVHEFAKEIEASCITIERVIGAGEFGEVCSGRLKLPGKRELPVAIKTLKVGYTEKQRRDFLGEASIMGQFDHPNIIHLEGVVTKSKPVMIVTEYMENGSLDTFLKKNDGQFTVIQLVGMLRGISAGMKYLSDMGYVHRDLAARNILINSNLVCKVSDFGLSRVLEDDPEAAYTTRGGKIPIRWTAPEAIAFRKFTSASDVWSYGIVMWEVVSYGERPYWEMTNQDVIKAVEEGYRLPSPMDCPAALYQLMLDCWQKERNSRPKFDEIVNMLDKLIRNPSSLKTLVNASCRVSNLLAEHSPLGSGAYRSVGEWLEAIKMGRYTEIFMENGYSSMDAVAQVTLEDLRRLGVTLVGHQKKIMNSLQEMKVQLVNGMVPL

FRK = biological target: T5, FRK (Homo sapiens, UniProt P42685); experiment: NanoBRET CELLinib128; format: binding; settings: 100% no effect, 0% complete tracer displacement, read-out: Tracer bound
T5 construct: Full-length kinase ORF (Promega, Madison, WI, USA) cloned in frame with a NanoLuc-vector was transfected into HEK293T cells; host or cells: HEK293T

HCK = biological target: T6, HCK (Homo sapiens, UniProt P08631); experiment: NanoBRET CELLinib128; format: binding; settings: 100% no effect, 0% complete tracer displacement, read-out: Tracer bound
T6 construct: Full-length kinase ORF (Promega, Madison, WI, USA) cloned in frame with a NanoLuc-vector was transfected into HEK293T cells; host or cells: HEK293T

MARK2 = biological target: T7, MARK2 (Homo sapiens, UniProt Q7KZI7); experiment: NanoBRET CELLinib128; format: binding; settings: 100% no effect, 0% complete tracer displacement, read-out: Tracer bound
T7 construct: Full-length kinase ORF (Promega, Madison, WI, USA) cloned in frame with a NanoLuc-vector was transfected into HEK293T cells; host or cells: HEK293T
T7 sequence (Q7KZI7 whole entry): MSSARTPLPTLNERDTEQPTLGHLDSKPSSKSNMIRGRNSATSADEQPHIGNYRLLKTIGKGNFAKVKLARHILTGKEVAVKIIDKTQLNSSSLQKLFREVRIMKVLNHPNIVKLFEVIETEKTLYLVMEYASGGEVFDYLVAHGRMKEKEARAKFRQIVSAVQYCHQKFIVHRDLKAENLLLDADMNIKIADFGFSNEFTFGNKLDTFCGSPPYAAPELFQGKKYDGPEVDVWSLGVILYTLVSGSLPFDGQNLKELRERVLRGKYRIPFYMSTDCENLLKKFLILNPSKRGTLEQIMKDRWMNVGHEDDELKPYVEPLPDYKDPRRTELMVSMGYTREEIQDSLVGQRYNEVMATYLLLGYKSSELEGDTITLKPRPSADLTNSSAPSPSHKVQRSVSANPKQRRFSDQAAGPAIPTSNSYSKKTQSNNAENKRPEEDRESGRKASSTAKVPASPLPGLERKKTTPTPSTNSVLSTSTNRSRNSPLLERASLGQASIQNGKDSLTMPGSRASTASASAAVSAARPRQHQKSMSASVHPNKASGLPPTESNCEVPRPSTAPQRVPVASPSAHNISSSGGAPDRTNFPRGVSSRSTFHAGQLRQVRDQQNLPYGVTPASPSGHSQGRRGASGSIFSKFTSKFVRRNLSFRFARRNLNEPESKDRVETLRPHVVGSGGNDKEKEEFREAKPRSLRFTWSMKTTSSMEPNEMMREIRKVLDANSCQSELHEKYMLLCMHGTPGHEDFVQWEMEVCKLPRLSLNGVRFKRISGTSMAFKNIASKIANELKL

PTK6 = biological target: T8, PTK6 (Homo sapiens, UniProt Q13882); experiment: NanoBRET CELLinib128; format: binding; settings: 100% no effect, 0% complete tracer displacement, read-out: Tracer bound
T8 construct: Full-length kinase ORF (Promega, Madison, WI, USA) cloned in frame with a NanoLuc-vector was transfected into HEK293T cells; host or cells: HEK293T
T8 sequence (Q13882 whole entry): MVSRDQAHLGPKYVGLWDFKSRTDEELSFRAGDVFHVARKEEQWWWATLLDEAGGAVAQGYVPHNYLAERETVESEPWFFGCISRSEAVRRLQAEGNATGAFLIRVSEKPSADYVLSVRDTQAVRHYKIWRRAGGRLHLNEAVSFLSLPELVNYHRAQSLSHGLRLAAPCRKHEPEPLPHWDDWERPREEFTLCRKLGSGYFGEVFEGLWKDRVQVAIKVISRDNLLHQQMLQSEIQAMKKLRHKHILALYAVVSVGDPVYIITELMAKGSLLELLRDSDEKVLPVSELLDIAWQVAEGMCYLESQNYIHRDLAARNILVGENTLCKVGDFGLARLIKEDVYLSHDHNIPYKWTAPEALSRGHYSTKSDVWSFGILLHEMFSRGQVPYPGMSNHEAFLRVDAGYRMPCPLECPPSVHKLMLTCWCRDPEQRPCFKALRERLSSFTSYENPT

TESK1 = biological target: T9, TESK1 (Homo sapiens, UniProt Q15569); experiment: NanoBRET CELLinib128; format: binding; settings: 100% no effect, 0% complete tracer displacement, read-out: Tracer bound
T9 construct: Full-length kinase ORF (Promega, Madison, WI, USA) cloned in frame with a NanoLuc-vector; host or cells: HEK293T

CAMK1 = CAMK1 (Homo sapiens, UniProt Q14012); experiment: NanoBRET CELLinib128; settings: read-out: Tracer bound
CAMK1, sequence (Q14012 whole entry): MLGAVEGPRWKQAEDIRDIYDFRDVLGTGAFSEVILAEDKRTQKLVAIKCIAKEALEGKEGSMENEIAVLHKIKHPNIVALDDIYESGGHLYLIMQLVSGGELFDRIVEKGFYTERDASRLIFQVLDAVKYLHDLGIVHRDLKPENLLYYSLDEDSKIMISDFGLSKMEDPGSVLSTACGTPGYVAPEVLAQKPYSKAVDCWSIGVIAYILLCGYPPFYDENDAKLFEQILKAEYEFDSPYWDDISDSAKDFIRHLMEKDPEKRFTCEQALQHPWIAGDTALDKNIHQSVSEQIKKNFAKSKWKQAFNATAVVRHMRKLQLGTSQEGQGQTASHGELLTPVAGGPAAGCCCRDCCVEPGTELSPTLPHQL

CDK1-CCNB1 = CDK1-CCNB1 (Homo sapiens, UniProt P06493); experiment: NanoBRET CELLinib128; settings: read-out: Tracer bound
CSNK1D = CSNK1D (Homo sapiens, UniProt P48730); experiment: NanoBRET CELLinib128; settings: read-out: Tracer bound
CSNK1D, sequence (P48730 whole entry): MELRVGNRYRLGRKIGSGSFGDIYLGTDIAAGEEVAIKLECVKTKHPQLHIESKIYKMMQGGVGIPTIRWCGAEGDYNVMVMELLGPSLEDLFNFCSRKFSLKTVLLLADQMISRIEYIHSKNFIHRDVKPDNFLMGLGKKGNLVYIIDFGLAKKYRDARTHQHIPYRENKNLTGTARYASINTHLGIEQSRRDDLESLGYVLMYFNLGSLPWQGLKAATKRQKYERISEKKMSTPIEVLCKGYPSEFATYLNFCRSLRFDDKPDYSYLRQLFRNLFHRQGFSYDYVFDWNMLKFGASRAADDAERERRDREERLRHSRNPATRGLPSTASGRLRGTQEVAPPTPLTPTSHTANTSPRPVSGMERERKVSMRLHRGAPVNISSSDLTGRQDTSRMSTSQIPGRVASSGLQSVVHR

EPHA2 = EPHA2 (Homo sapiens, UniProt P29317); experiment: NanoBRET CELLinib128; settings: read-out: Tracer bound
EPHA4 = EPHA4 (Homo sapiens, UniProt P54764); experiment: NanoBRET CELLinib128; settings: read-out: Tracer bound
EPHB4 = EPHB4 (Homo sapiens, UniProt P54760); experiment: NanoBRET CELLinib128; settings: read-out: Tracer bound
EPHB6 = EPHB6 (Homo sapiens, UniProt O15197); experiment: NanoBRET CELLinib128; settings: read-out: Tracer bound
EPHB6, sequence (O15197 32-1021): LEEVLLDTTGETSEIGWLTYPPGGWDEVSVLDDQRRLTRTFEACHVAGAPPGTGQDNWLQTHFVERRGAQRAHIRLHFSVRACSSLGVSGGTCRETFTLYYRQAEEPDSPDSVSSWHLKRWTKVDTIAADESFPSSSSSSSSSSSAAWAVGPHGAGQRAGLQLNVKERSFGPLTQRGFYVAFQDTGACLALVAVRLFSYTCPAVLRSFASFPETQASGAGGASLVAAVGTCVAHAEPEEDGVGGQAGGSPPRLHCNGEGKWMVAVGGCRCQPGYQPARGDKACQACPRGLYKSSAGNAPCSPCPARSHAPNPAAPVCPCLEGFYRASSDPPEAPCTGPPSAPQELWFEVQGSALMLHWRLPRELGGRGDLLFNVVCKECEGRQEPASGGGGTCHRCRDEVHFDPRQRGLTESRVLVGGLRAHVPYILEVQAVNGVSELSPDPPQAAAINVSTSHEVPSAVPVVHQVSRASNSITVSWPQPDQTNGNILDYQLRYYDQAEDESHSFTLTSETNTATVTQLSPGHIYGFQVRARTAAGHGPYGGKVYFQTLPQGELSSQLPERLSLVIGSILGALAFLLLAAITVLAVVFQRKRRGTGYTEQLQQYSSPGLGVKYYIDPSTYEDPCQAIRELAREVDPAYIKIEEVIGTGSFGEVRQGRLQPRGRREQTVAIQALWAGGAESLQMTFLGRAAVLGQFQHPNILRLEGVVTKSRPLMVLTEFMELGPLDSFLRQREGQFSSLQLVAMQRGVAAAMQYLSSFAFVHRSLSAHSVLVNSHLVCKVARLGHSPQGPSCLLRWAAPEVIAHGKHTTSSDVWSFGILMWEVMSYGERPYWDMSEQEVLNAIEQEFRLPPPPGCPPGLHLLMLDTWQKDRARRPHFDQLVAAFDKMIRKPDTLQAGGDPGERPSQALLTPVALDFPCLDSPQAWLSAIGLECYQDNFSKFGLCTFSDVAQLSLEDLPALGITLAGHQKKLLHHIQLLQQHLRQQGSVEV

MARK3 = MARK3 (Homo sapiens, UniProt P27448); experiment: NanoBRET CELLinib128; settings: read-out: Tracer bound
PLK2 = PLK2 (Homo sapiens, UniProt Q9NYY3); experiment: NanoBRET CELLinib128; settings: 1 µM; 100% no effect, 0% complete tracer displacement
RIPK1 = RIPK1 (Homo sapiens, UniProt Q13546); experiment: NanoBRET CELLinib128; settings: read-out: Tracer bound
STK32B = STK32B (Homo sapiens, UniProt Q9NY57); experiment: NanoBRET CELLinib128; settings: read-out: Tracer bound
STK32B, sequence (Q9NY57 whole entry): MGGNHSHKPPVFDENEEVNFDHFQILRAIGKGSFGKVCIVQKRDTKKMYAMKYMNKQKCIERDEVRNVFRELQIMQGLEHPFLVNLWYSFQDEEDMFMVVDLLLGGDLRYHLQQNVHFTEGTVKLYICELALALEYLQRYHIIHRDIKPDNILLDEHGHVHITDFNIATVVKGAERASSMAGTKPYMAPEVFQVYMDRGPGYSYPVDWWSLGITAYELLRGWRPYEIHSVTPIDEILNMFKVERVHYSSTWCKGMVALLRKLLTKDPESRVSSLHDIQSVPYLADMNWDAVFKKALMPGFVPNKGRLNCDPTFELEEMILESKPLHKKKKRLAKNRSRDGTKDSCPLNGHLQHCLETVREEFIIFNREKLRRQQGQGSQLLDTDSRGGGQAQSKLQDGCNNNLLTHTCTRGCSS

TEC = TEC (Homo sapiens, UniProt P42680); experiment: NanoBRET CELLinib128; settings: read-out: Tracer bound
[1] = system: 128 representative protein kinases; experiment: NanoBRET CELLinib128 kinase selectivity panel, summary; settings: 1 μM
MV4-11 cells = experiment: Apoptosis by flow cytometry (annexin-V/propidium iodine); format: cell-based, human; settings: 24 h
Method: To further assess the biological relevance of these findings, we treated MV4-11 cells with the new PROTACs, included MA49 as control, and analyzed them for early (annexin-V positive) and late apoptosis (annexin-V and propidium iodine positive) by flow cytometry. Cells in late apoptosis are more severely damaged than cells in early apoptosis. […] After 72 h, all degraders evoked equal levels of apoptosis (Figure 4c). We additionally tested these degraders in MOLM-13 cells which carry FLT3-ITD and FLT3 from a patient with AML after initial myelodysplastic syndrome. These were hardly affected by the degraders after 24 h (Figure 4d).
Figure 4 Biological and biochemical characterization of the FLT3 PROTACs. (a) MV4-11 cells were incubated for 24 h with 50 nM of the indicated compounds. Immunoblotting was performed for the indicated proteins and their phosphorylation (p-) or cleavage (cl.; indicated by arrows); β-actin was used to ensure equal sample loading. (b) MV4-11 cells were treated with the indicated agents and analyzed for early and late apoptosis by flow cytometry. (c) Same as in (b) but treatment for 72 h. (d) MOLM-13 cells were treated with the indicated agents and analyzed for early and late apoptosis by flow cytometry. […] Immunoblots show the expression of the indicated proteins and their phosphorylation (p-); β-actin was used to ensure equal sample loading. […]

Row | Structure (SMILES) | solubility (Nephelometric solubility) [µM] | remaining activity at 1 µM (ABL1) [%] | remaining activity at 1 µM (CAMK1D) [%] | remaining activity at 1 µM (CAMK1G) [%] | Tracer bound (EPHA5) [%] | remaining activity at 1 µM (FRK) [%] | remaining activity at 1 µM (HCK) [%] | remaining activity at 1 µM (MARK2) [%] | remaining activity at 1 µM (PTK6) [%] | remaining activity at 1 µM (TESK1) [%] | remaining activity at 1 µM (CAMK1) [%] | remaining activity at 1 µM (CDK1-CCNB1) [%] | remaining activity at 1 µM (CSNK1D) [%] | remaining activity at 1 µM (EPHA2) [%] | remaining activity at 1 µM (EPHA4) [%] | remaining activity at 1 µM (EPHB4) [%] | remaining activity at 1 µM (EPHB6) [%] | remaining activity at 1 µM (MARK3) [%] | Tracer bound (PLK2) [%] | remaining activity at 1 µM (RIPK1) [%] | also measured
1 | CNC(=O)c1cc(Oc2ccc(NC(=O)Nc3cc(C(C)(C)C)on3)cc2)ccn1 [MA68, reference compound] | 45.8 (≈ 18.8 µg/mL) | 71.8 | 102 | 101 | 41.1 | 68.2 | 120 | 112 | 67.6 | 102 | 100 | 98 | 104 | 10.6 | 33.7 | 3.8 | 99.5 | 105 | 98.1 | 93.3 | remaining activity at 1 µM (STK32B): 104%; remaining activity at 1 µM (TEC): 107%; Target Count < 50 % tracer bound (kinases with >50% tracer displacement) ([1]; of 128 kinases): 25
2 | Cc1ncsc1-c1ccc([C@H](C)NC(=O)[C@@H]2C[C@@H](O)CN2C(=O)[C@@H](NC(=O)[C@H]2CC[C@H](C(=O)N3CCN(CCNC(=O)c4cc(Oc5ccc(NC(=O)Nc6cc(C(C)(C)C)on6)cc5)ccn4)CC3)CC2)C(C)(C)C)cc1 [MA191, 4-(4-(3-(5-(tert-Butyl)isoxazol-3-yl)ureido)phenoxy)-N-(2-(4-(trans-4-(((S)-1-((2S,4R)-4-hydroxy-2-(((S)-1-(4-(4-methylthiazol-5-yl)phenyl)ethyl)carbamoyl)pyrrolidin-1-yl)-3,3-dimethyl-1-oxobutan-2-yl)carbamoyl)cyclohexanecarbonyl)piperazin-1-yl)ethyl)picolinamide] | 47.7 (≈ 51.9 µg/mL) | 105 | 85.4 | 91.6 | 120.0 | 117 | 120 | 110 | 118 | 116 | 93.6 | 81.9 | 120 | 104 | 118 | 120 | 120 | 102 | 107.6 | 104 | induction of late apoptosis (MV4-11 cells): most effective in inducing late apoptosis; remaining activity at 1 µM (STK32B): 92.5%; remaining activity at 1 µM (TEC): 113%; kinases with no detectable binding (<10%) ([1]; share of the 128 kinases): 93.7%
3 | Cc1ncsc1-c1ccc([C@H](C)NC(=O)[C@@H]2C[C@@H](O)CN2C(=O)[C@@H](NC(=O)[C@H]2CC[C@H](C(=O)N3CCC(CCNC(=O)c4cc(Oc5ccc(NC(=O)Nc6cc(C(C)(C)C)on6)cc5)ccn4)CC3)CC2)C(C)(C)C)cc1 [MA190, 4-(4-(3-(5-(tert-Butyl)isoxazol-3-yl)ureido)phenoxy)-N-(2-(1-(trans-4-(((S)-1-((2S,4R)-4-hydroxy-2-(((S)-1-(4-(4-methylthiazol-5-yl)phenyl)ethyl)carbamoyl)pyrrolidin-1-yl)-3,3-dimethyl-1-oxobutan-2-yl)carbamoyl)cyclohexanecarbonyl)piperidin-4-yl)ethyl)picolinamide] | – | – | – | – | – | – | – | – | – | – | – | – | – | – | – | – | – | – | – | – | induction of late apoptosis (MV4-11 cells): most effective in inducing late apoptosis
